Data: patent publication US7195879B2, “Method for identifying modulators of NAv ion channels” (priority 2002, dated 2007)
Values joined by “and” are separate entries in the source; they are usually repeats but may differ in a detail not shown here. Equal entries are not always repeated. “Also recorded” adds a separate entry of the source. Where two headings read alike, the source gives them in different places.

Assays:
[1] = system: IMR-32 cells grown in the presence of RA (fast transient inward currents); test: Whole cell voltage clamp of inward currents, IMR-32 cells grown in RA; type: cell-based, human
Method: The endogenous voltage gated Na currents expressed in IMR-32 cells grown in the presence or absence of 1 μM RA were measured using standard whole cell voltage clamp techniques (Hamill et al. (1981). The whole cell patch clamp technique was used to record voltage-activated currents from IMR-32 cells maintained for two or more days on 12 mm glass coverslips in the presence or absence of RA (1 μM). Cells were visualized using a Nikon Diaphot 300 with DIC Nomarski optics. The standard physiological saline (1 Ca tyrodes (“Tyrodes”) contains: 130 mM NaCl, 4 mM KCl, 1 mM CaCl2, 1.2 mM MgCl2, and 10 mM hemi-Na-HEPES (pH 7.3, 295–300 mOsm as measured using a Wescor 5500 vapor-pressure (Wescor, Inc., Logan, Utah)). Recording electrodes are fabricated from borosilicate capillary tubing (R6; Garner Glass, Claremont, Calif.), the tips are coated with dental periphery wax (Miles Laboratories, South Bend, Ind.), and have resistances of 1 to 2 MΩ when containing an intracellular saline designed to block outward currents: 140 mM CsCl, 0.483 mM CaCl2, 2 mM MgCl2, 10 mM HEPES free acid and 1 mM K4-BAPTA (100 nM free Ca^+2); pH 7.4, with dextrose added to achieve 290 mOsm). Current and voltage signals are detected and filtered at 2 kHz with an Axopatch 1D patch-clamp amplifier (Axon Instruments, Foster City, Calif.), digitally recorded with a DigiData 1200B laboratory interface (Axon Instruments) and PC compatible computer system and stored on magnetic disk for off-line analysis. Data acquisition and analysis are performed with PClamp software.
The total membrane capacitance (Cm) was determined as the difference between the maximum current after a 30 mV hyperpolarizing voltage ramp from −100 mV (generated at a rate of 10 mV/ms) and the steady state current at the final potential (−130 mV) (Dubin et al. (1999)).
Families of voltage-gated inward currents were obtained using a standard P/−4 protocol from −100 mV. Depolarizing voltage steps in increments of 10 mV were applied from a holding potential of −100 mV. Steady state inactivation was elicited by measuring the peak current at 0 mV after a 500 msec pre-pulse voltage between −140 and −20 mV in increments of 10 mV.

[2] = biological target: Nav1.3 (Homo sapiens, UniProt Q9NY46); type: cell-based
[3] = system: Nav; type: cell-based, human
[4] = system: IMR-32 cells grown in the absence of RA (inward currents); type: cell-based, human
[5] = biological target: Nav1.7 (Homo sapiens, UniProt Q15858)
[6] = system: TTX-R inward current (calcium currents); test: Whole cell voltage clamp, block of TTX-R inward current in IMR-32 cells; type: cell-based, human; conditions: 5 μM

Chain of Nav1.3 (Q9NY46 whole entry, looked up): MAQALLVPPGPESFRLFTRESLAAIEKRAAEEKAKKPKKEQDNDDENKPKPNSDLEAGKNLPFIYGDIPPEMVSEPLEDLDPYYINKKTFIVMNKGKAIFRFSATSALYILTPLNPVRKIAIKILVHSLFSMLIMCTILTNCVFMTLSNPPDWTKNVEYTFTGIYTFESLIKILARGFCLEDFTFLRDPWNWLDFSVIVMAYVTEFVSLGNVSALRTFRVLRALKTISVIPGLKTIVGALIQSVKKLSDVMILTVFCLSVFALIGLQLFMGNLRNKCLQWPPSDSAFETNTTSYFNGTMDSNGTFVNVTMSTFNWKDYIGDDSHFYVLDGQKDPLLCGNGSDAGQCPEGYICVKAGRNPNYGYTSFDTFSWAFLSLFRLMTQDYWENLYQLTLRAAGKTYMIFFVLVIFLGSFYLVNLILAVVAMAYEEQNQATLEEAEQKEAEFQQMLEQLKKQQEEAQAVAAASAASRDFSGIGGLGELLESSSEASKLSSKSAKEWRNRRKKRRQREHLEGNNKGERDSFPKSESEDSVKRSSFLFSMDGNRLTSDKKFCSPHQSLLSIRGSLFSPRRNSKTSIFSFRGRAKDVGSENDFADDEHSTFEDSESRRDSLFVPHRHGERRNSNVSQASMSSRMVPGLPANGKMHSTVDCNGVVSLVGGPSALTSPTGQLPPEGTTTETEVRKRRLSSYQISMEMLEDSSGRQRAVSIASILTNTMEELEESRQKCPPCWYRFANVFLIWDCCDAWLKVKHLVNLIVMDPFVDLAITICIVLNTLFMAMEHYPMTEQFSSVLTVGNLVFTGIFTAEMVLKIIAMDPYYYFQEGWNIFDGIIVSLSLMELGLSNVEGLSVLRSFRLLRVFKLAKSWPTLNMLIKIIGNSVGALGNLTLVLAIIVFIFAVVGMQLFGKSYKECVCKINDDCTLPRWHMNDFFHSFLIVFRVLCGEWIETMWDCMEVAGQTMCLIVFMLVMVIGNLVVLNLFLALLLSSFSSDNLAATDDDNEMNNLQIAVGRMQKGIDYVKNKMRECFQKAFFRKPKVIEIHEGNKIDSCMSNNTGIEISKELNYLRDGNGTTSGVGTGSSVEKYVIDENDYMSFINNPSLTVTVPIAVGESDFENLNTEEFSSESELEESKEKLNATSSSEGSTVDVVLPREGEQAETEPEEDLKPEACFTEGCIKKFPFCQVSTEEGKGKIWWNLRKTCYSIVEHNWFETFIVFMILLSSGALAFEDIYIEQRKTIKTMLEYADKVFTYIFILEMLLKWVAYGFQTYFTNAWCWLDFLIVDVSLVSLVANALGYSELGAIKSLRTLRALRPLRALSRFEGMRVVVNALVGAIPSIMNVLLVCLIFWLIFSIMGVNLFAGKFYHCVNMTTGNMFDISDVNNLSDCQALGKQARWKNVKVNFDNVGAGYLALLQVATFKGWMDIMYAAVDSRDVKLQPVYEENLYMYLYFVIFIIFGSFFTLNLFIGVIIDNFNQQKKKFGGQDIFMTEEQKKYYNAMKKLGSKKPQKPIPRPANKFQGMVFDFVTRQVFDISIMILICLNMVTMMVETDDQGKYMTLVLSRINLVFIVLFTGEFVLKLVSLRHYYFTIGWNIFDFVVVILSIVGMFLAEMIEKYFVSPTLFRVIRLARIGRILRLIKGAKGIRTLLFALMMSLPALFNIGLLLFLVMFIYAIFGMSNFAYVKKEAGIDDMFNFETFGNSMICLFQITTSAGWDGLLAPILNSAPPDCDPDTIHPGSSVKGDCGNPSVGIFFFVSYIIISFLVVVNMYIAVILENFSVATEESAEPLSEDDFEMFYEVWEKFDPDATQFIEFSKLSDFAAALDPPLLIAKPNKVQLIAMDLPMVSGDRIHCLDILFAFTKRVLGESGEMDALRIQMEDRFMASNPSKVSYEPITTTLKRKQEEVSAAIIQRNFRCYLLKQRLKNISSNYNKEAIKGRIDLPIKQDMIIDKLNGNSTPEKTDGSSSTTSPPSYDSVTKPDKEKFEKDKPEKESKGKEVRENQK
Chain of Nav1.7 (Q15858 whole entry, looked up): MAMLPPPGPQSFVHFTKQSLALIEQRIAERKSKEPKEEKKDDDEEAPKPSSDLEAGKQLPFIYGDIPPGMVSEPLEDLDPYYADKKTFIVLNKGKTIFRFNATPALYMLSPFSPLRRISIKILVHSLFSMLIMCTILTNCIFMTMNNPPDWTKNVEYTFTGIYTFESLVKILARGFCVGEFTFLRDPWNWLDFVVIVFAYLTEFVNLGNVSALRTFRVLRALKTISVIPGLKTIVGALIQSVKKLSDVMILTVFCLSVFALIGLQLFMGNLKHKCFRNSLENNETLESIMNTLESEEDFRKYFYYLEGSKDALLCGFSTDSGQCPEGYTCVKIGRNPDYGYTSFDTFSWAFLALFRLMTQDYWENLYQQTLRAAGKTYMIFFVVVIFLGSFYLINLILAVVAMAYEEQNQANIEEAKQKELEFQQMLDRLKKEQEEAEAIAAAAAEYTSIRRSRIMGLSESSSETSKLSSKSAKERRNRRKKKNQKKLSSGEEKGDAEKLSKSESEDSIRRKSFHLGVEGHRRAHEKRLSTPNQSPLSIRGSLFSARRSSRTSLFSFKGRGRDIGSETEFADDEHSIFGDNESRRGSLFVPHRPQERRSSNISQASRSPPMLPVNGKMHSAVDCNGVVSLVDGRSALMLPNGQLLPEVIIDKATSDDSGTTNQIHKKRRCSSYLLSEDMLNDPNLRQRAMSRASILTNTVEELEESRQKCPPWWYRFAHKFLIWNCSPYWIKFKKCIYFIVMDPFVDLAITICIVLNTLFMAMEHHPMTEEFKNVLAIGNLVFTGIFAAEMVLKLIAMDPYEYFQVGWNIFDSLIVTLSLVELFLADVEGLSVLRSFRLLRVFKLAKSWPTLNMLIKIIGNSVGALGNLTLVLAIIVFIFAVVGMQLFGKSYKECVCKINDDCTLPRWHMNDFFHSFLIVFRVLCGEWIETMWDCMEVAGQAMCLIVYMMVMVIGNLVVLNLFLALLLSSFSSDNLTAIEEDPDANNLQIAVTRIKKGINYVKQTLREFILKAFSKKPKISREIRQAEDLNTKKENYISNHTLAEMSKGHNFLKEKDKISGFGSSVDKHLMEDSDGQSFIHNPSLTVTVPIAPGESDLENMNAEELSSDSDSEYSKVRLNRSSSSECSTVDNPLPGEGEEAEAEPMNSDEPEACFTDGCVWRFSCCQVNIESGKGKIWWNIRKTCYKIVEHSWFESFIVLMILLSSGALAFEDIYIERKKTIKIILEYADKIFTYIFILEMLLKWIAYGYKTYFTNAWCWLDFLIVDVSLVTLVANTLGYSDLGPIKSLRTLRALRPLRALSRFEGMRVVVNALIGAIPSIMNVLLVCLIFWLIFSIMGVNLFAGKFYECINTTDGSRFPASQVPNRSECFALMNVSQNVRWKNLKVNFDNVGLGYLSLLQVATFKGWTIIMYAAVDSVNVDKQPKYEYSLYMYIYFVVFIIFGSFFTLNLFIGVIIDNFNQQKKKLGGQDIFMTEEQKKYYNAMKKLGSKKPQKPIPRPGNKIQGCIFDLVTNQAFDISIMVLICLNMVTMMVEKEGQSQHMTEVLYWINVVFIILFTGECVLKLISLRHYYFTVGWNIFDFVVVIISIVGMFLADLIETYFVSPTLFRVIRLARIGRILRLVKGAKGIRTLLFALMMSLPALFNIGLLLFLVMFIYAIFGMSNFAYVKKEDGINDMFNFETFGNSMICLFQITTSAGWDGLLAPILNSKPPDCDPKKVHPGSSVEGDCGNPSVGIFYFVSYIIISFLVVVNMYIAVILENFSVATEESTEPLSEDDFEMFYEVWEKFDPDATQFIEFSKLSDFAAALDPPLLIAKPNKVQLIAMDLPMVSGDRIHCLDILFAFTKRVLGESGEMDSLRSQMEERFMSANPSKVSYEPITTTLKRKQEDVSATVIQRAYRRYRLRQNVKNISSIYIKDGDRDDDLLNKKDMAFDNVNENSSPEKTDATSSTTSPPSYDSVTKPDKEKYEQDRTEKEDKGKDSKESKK

CC1=C(/C=C/C(C)=C\C=C\C(C)=C\C(=O)O)C(C)(C)CCC1 [RA, 9-cis RA]
peak inward currents ([1]; cells grown for more than two weeks in RA, tested in Tyrodes, n=24, vs -43.3 without RA, p<0.02): −75.3+/−10.6 pA/pF

NC1=N[C@H](O)[C@H]2[C@H]3O[C@]4(O)O[C@@H]([C@@H](O)[C@@]2(N1)[C@@H]4O)[C@]3(O)CO [TTX, tetrodotoxin]
block of veratridine-induced depolarization / fluorescence signal [2]: completely suppressed; also recorded: completely blocked; also recorded: nearly completely blocks
proportion of the veratridine-induced response blocked [2]: 90% and 88% and 89%
steepness of the dose response relationship [2]: 0.76 and 0.89 and 0.79
IC50 ([2]; read-out: IC50, block of veratridine-stimulated sodium influx): 3.3 nM
IC50 ([2]; read-out: concentration to half block the veratridine-induced increase in fluorescence (IC50)): 2.8 nM
effect on FRET signal [3]: dose dependent decreases
TTX-S component of inward currents, proportion of total current [4]: 17+/−6%
block of inward currents [4]: only partially blocked
block of veratridine induced signal [5]: nearly completely blocks
proportion of the veratridine-induced response blocked [5]: 82% and 80%
steepness of the dose response relationship [5]: 1.0 and 1.5
TTX-S component of inward currents, proportion of total current [1]: 36+/−7%
block of inward currents [1]: 92%
effect on inward currents [1]: little effect

COCC(=O)O[C@]1(CCN(C)CCCc2nc3ccccc3[nH]2)CCc2cc(F)ccc2[C@@H]1C(C)C [mibefradil]
block of the TTX-R current [6]: in part
